Experimental data published in publication PMC10412865 (Current Research in Toxicology, 2023).
Where a name gives a salt, the structure may show the parent alone. Read-outs that look alike come from different tables or passages of the source.

Key:
[1] = system: CYP1A2 activity in HepaRG cells; test: CYP1A2 enzyme activity in differentiated HepaRG monolayers; assay type: cell-based, human; settings: HepaRG, 48 h
[2] = system: CYP3A4 activity in HepaRG cells; settings: 48 h
human recombinant CYP1A2 = biological target: T1, human recombinant CYP1A2 (Homo sapiens, UniProt P05177); test: Human recombinant CYP1A2 Supersome inhibition assay; assay type: biochemical
T1 sequence (P05177 1-516): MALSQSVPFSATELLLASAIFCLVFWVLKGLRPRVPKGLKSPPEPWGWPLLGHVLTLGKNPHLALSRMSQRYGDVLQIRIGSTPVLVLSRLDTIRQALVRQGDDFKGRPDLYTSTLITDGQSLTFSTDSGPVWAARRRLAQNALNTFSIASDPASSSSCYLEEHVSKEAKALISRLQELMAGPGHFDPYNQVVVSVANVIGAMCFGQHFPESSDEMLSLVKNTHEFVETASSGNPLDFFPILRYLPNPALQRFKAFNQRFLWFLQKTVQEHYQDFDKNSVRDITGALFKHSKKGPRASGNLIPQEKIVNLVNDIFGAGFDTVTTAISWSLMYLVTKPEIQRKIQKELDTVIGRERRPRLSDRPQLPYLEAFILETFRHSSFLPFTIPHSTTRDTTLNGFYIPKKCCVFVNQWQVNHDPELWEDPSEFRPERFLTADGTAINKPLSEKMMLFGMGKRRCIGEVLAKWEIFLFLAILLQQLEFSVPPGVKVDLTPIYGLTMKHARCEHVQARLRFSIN

human recombinant CYP2B6 = biological target: T2, human recombinant CYP2B6 (Homo sapiens, UniProt P20813); test: Human recombinant CYP2B6 Supersome inhibition assay; assay type: biochemical
T2 sequence (P20813 1-491): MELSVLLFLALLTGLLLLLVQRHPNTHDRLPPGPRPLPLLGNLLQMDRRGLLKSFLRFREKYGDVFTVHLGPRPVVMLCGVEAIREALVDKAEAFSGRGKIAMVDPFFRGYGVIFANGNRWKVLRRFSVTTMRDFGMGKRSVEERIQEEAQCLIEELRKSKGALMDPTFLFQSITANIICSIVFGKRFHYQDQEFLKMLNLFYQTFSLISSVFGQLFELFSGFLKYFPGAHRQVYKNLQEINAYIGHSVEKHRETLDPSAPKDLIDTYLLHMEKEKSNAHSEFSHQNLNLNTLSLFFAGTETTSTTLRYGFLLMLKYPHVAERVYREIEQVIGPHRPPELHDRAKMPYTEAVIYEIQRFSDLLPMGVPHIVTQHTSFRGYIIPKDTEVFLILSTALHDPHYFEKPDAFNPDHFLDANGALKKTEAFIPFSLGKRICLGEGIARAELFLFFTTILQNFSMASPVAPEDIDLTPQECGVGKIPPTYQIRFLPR

[3] = biological target: human recombinant CYP2C19 (Homo sapiens, UniProt P33261); test: Human recombinant CYP2C19 Supersome inhibition assay; assay type: biochemical
human recombinant CYP2E1 = human recombinant CYP2E1 (Homo sapiens, UniProt P05181); test: Human recombinant CYP2E1 Supersome inhibition assay; assay type: biochemical
human recombinant CYP3A4 = human recombinant CYP3A4 (Homo sapiens, UniProt P08684); test: Human recombinant CYP3A4 Supersome inhibition assay; assay type: biochemical
CYP1A2 = CYP1A2 enzyme activity in differentiated HepaRG monolayers; assay type: cell-based, human; settings: human, differentiated HepaRG cell monolayers, probe luciferin-1A2 (6 µM)
[4] = humans, estimated average; ref Olsen et al. 2007; cited from earlier work
[5] = 1 nM PFAS in binary mixture with 10 µM BaP
[6] = 1 µM PFAS in binary mixture with 10 µM BaP
[7] = 1 nM PFAS in binary mixture with 10 µM rifampicin
[8] = 1 µM PFAS in binary mixture with 10 µM rifampicin

Sequence of human recombinant CYP2C19 (P33261 whole entry): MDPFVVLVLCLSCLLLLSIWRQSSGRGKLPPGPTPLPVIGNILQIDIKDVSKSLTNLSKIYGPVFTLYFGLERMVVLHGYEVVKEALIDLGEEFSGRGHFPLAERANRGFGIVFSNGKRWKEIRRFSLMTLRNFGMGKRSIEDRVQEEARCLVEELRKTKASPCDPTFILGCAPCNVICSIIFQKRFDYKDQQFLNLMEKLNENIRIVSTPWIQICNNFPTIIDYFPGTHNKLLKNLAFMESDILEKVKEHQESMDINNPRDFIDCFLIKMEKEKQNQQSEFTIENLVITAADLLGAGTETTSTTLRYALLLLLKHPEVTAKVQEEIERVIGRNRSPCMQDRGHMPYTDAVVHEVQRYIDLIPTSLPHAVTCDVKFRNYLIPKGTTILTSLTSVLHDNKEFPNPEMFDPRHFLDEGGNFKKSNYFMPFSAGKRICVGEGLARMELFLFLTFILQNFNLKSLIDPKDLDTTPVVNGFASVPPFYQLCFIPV
Sequence of human recombinant CYP2E1 (P05181 whole entry): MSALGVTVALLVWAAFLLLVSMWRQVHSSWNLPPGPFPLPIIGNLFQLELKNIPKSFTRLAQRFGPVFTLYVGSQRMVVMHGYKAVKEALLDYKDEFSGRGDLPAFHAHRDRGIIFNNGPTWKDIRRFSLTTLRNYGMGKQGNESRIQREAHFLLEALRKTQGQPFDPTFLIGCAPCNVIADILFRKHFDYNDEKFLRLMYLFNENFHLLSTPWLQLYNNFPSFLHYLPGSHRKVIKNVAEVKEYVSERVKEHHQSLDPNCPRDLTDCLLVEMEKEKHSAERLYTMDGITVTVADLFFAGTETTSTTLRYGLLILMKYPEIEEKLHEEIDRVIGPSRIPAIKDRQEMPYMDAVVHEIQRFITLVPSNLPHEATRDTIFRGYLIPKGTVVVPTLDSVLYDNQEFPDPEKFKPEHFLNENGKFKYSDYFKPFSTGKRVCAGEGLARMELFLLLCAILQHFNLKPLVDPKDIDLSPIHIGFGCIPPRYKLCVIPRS
Sequence of human recombinant CYP3A4 (P08684 whole entry): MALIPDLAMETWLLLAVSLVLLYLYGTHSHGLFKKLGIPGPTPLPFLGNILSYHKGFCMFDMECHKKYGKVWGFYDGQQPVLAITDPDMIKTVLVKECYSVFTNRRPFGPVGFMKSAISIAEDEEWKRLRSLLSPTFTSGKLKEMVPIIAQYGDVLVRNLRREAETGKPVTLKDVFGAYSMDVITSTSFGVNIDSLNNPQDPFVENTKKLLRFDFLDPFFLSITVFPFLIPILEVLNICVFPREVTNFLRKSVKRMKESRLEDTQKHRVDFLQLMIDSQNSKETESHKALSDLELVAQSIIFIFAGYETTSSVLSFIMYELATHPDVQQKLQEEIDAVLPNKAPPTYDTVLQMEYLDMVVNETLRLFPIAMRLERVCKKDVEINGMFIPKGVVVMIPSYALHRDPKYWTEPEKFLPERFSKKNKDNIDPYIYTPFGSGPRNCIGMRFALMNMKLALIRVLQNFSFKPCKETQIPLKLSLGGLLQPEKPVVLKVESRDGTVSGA

| SMILES | CYP1A2 activity (% of the solvent control) ([1]; 1 nM PFAS alone) | CYP1A2 activity (% of the solvent control) [1, 5] | CYP1A2 activity (% of the solvent control) ([1]; 1 µM PFAS alone) | CYP1A2 activity (% of the solvent control) [1, 6] | CYP3A4 activity (% of the solvent control) ([2]; 1 nM PFAS alone) | CYP3A4 activity (% of the solvent control) [2, 7] | CYP3A4 activity (% of the solvent control) ([2]; 1 µM PFAS alone) | CYP3A4 activity (% of the solvent control) [2, 8] | IC50 (human recombinant CYP1A2) [µM] | IC50 (human recombinant CYP2B6) [µM] | IC50 [3] [µM] | IC50 (human recombinant CYP2E1) [µM] | IC50 (human recombinant CYP3A4) [µM] | activity at 48 h, 1 nM (CYP1A2) [%] | activity at 48 h, 1 µM (CYP1A2) [%] | half-life of serum elimination [4] [years] |
| --- | --- | --- | --- | --- | --- | --- | --- | --- | --- | --- | --- | --- | --- | --- | --- | --- |
| OCCC(F)(F)C(F)(F)C(F)(F)C(F)(F)C(F)(F)C(F)(F)F [6:2 FTOH, 6:2 Fluorotelomer alcohol] | 168.4% | lower | 148.4% | lower | no statistically significant differences | not statistically different from the inducer nor the solvent control | no statistically significant differences | not statistically different from the inducer nor the solvent control |  |  |  |  |  |  |  |  |
| O=C(O)C(F)(OC(F)(F)C(F)(F)C(F)(F)F)C(F)(F)F (centres unmarked) [HFPO-DA, Undecafluoro-2-methyl-3-oxahexanoic acid] | neither concentration of HFPO-DA nor PFHxS had a significant effect | decreased activity | neither concentration of HFPO-DA nor PFHxS had a significant effect | decreased activity |  | did not influence the CYP3A4 activity |  | did not influence the CYP3A4 activity |  |  |  |  |  |  |  |  |
| O=S(=O)(O)C(F)(F)C(F)(F)C(F)(F)C(F)(F)F [PFBS, Perfluorobutanesulfonic acid] | 205.4% | 130.9% | 204.4% | 128.5% |  | concentration-dependent decrease |  |  |  |  |  |  |  |  |  |  |
| O=C(O)C(F)(F)C(F)(F)C(F)(F)C(F)(F)C(F)(F)F [PFHxA, Perfluorohexanoic acid] | increased CYP1A2 activity | no significant differences | increased CYP1A2 activity | no significant differences |  |  |  | not in those exposed to the higher (1 µM) concentrations |  |  |  |  |  |  |  |  |
| O=S(=O)(O)C(F)(F)C(F)(F)C(F)(F)C(F)(F)C(F)(F)C(F)(F)F [PFHxS, Perfluorohexanesulfonic acid potassium salt] | no significant differences |  | no significant differences |  |  | significantly lower relative to rifampicin alone |  | significantly lower relative to rifampicin alone | 13.8 | > 100 | 51.6 | > 100 | > 100 | 80.2 | 122 |  |
| O=C(O)C(F)(F)C(F)(F)C(F)(F)C(F)(F)C(F)(F)C(F)(F)C(F)(F)F [PFOA, Perfluorooctanoic acid] |  |  |  |  |  |  |  |  | > 100 | 96.9 | > 100 | > 100 | > 100 |  |  | 3.5 |
